Experimental data from patent publication US8158560B2, “Insecticidal arylpyrroline compounds” (Bayer CropScience AG, priority 2009, dated 2012).
Values joined by “and” are separate entries in the source; they are usually repeats but may differ in a detail not shown here. Equal values may be shown once.

Assays:
Assay type in all cases: in vivo
Panonychus citri = Panonychus citri spray test (METTCI); details: 4 ppm, 7 dat, rating scheme b306
Experimental: Panonychus citri—Spray Test (METTCI)
Plant: Citrus plants, ca 8 cm height
(§1) Solvent pre-mixture: Sorpol® SD: Sorpol® BDB:Dimethylformamide=3:3:14
(§2) 10 mg a i. is solved with 0.05 ml solvent pre-mixture.
(§3) Water for dilution contains RME and AS (1000 ppm each) or 0.1% of spreader. Solutions are diluted at the rate of 1:5 for limit concentration determination.
Procedure: 1 day before treatment mites were inoculated onto potted citrus plants, about 50 adults and some nymphs for 1 pot. The test solution is sprayed directly onto both mites and plants. After drying pots are stored at 25° C.
After the specified period of time mortality in % is determined by rating according to the following scheme/criteria.

[1] = tested on: Aulacophora femoralis 2nd instar larvae; test: Aulacophora femoralis spray test (AUACFE); details: 0.8 ppm, 6 dat, rating scheme b297
Experimental: Aulacophora femoralis—Spray Test (AUACFE)
Insect: Aulacophora femoralis 2nd instar larvae from own culture;
Material: PET cups with 5 ml soil and A-PET lids
Plant: Cucumber (Cucumis sativus var. Hanshiro), cotyledon stage; 1 plant per pot;
Solvent pre-mixture: Sorpol® SD: Sorpol® BDB:Dimethylformamide=3:3:14;
10 mg a.i. solved with 0.05 ml solvent pre-mixture. Water for dilution contains RME and AS (1000 ppm each) or 0.1% of spreader. Solutions are diluted at the rate of 1:5 for limit concentration determination.
Procedure: Solutions are sprayed onto a plant. After drying, plants are cut and put on the soil in the testing cup. Five larvae L2 are released into each testing cup.
The testing cup is covered with the lid and stored at 25° C. and 50-60% r.h., 16L8D lighting conditions.
After the specified period of time, the mortality in % is determined according to the following scheme/criteria: […]

Adoxophyes honmai = Adoxophyes honmai test (ADXPFA), treated artificial diet; details: 0.8 ppm, 2 dat
Experimental: Procedure: Broccoli seedlings of 4-5 leaf stage planted in a vinyl pot (9 cm diameter) are sprayed with the solution. After drying half of the leaves of the plants are cut and put into a A-PET cup. Ten larvae of Plutella xylostella L3 are released in the cup and the dish is placed at 25° C. After 4 days another half leaf is cut and added to the dish. After the specified period of time mortality in % is determined according to the figures of mortality used for evaluation. • 1 larva dead: 20% Efficacy • 5 larvae dead: 100% Efficacy Adoxophyes honmai—Test (ADXPFA)
Insect: Adoxophyes honmai from own culture
Material: 1 A-PET cup with lid
Food agent: 4.5 g of artificial diet powder Silkmate-Kantan-3®
as §1
10 mg a i. is solved with 0.05 ml solvent pre-mixture. Water for dilution contains RME and AS (1000 ppm each) or 0.1% of spreader. Solutions are diluted at the rate of 1:5 for limit concentration determination.
Procedure: 4.5 g of artificial diet powder is put into a PET cup (10 cm diameter, 5 cm depth). The powder was leveled to make a layer in the bottom of the cup. […]
(§4) After the specified period of time mortality in % is determined according to the following criteria: • 1 larva dead: 20% Efficacy • 5 larvae dead: 100% Efficacy Frankliniella occidentalis—Spray-Test (FRANOC)

[2] = tested on: Frankliniella occidentalis; test: Frankliniella occidentalis spray test (FRANOC); details: 0.16 ppm, 7 dat
Experimental: as §4
Insect: Frankliniella occidentalis from own culture
Plant: Cucumber seedlings, cotyledon stage
as §1, §2, §3
Procedure: The solution is sprayed to a cucumber seedling. After drying, the plant is placed in a plastic stand. About fifty 1st-instar larvae were inoculated to the plant and covered with a cage. The plant is stored at 25° C.
After the specified period of time % efficacy is determined by rating feeding damages on the plant according to the following criteria: […]

[3] = tested on: Myzus persicae-resistant strain, mixed population; test: Myzus persicae spray test (MYZUPE); details: 4 ppm, 6 dat
Experimental: Myzus persicae—Spray Test (MYZUPE)
Insect: Myzus persicae-resistant strain, mixed population
Plant: Eggplant seedling (Solanum melongena var. Senryo 2gou) 2 leaf age (4-5 weeks after sowing), transplanted into vinyl pots of 60 mm diameter
Solvent pre-mixture: Sorpol® SD: Sorpol® BDB:Dimethylformamide=3:3:14; 10 mg a.i. is solved with 0.05 ml solvent pre-mixture. Water for dilution contains RME and AS (1000 ppm each) or 0.1% of spreader. Solutions are diluted at the rate of 1:5 for limit concentration determination.
Procedure: 1 day before treatment aphids are inoculated onto the testing plants, about 50 aphids per leaf, 100 for 1 pot. A paper label is placed on each pot. Solutions are sprayed directly onto both insects and plants. After drying pots are placed in the greenhouse at 20° C.-25° C. and 50-60% relative humidity.
After the specified period of time the mortality in % is determined and the rate of death is calculated according to the following scheme/criteria: […]

[4] = tested on: Nephotettix cincticeps-MR, resistant strain, 3rd-4th instar nymphs; test: Nephotettix cincticeps spray test (NEPHCI); details: 20 ppm, 7 dat
Experimental: Nephotettix cincticeps-Spray Test (NEPHCl)
Insect: Nephotettix cincticeps-MR, resistant strain, 3rd-4th instar nymphs from own culture
Plant: Rice seedlings (Oryza sativa var. Tamanishiki)
Material: ST-method container (200 ml desiccant polystyrene bottle) with a hole in the bottom sealed with metal mesh. The lid has a pit inside to keep desiccant, and it is used to sow rice seeds. The bottle is used upside down as “cover”, the lid with seedling is called “base”. Plastic stand-board with magnet labels to line the ST Bases up (“Stand”)
Solvent pre-mixture: Sorpol® SD: Sorpol® BDB:Dimethylformamide=3:3:14 10 mg a i. is solved with 0.05 ml solvent pre-mixture. Water for dilution contains RME and AS (1000 ppm each) or 0.1% of spreader. Solutions are diluted at the rate of 1:5 for limit concentration determination.
Procedure: On a pit in the center of a base (originally the desiccant space) pieces of paper towel are placed. 20-30 germinated rice seeds are sown on the paper and moistened with water. The base is covered with a plastic cup and kept in an incubator at 30° C. for five days.
The base with rice seedlings is placed on the Stand. Each base is sprayed with the solution.
After drying twelve 3rd-4th instar nymphs of Nephotettix cincticeps-MR are put on the base and confined with the cover. The ST containers on the Stands are kept in the testing room at 25° C. and 50-60% r.h., 16L8D lighting conditions.
After the specified period of time mortality in % is determined by rating according to the following scheme/criteria: Counting living moving insects, calculate mortality in % by the formula: […]

[5] = tested on: Bemisia tabacii biotype B; test: Bemisia tabacii spray test (BEMIAR); details: 100 ppm, 14 dat, rating scheme b324
Experimental: Bemisia tabacii—Spray-Test (BEMIAR)
Insect: Bemisia tabacii biotype B
Plant: Tomato seedlings, 5 leaf stage in vinyl pots of 40 mm diameter
as §1
10 mg a.i. is solved with 0.05 ml solvent pre-mixture. Water for dilution contains RME and AS (1000 ppm each) or 0.1% of spreader. Solutions are diluted at the rate of 1:5 for limit concentration determination.
Procedure: Solutions are sprayed to the plants. After drying treated pots are placed in the greenhouse where breeding BEMIAR for an infection-time of 24 h. Then the plants is placed in the testing room at 25° C. and 50-60% r.h., 16L8D lighting conditions.
After the specified period of time mortality in % is determined according to the following scheme/criteria: […]

| Compound | Efficacy/day(s) of treatment (Panonychus citri) [%/7 dat] | Efficacy/day(s) of treatment [1] [%/6 dat] | Efficacy/day(s) of treatment (Adoxophyes honmai) [%/2 dat] | Efficacy/day(s) of treatment [2] [%/7 dat] | Efficacy/day(s) of treatment [3] [%/6 dat] | Efficacy/day(s) of treatment ([3]; rating scheme) [%/6 dat] | Efficacy/day(s) of treatment [4] | Efficacy/day(s) of treatment [5] [%/14 dat] |
| --- | --- | --- | --- | --- | --- | --- | --- | --- |
| 4-{3-[3,5-Bis(trifluoromethyl)phenyl]-3-(trifluoromethyl)-3,4-dihydro-2H-pyrrol-5-yl}-2-methyl-N-(thietan-3-yl)benzamide [Compound 1-19] | 60 | 100 | 60 | 98 | 90 | 98 | 20%/7 dat and 80%/7 dat | 100 |
| Cc1cc(C2=NOC(c3cc(C(F)(F)F)cc(C(F)(F)F)c3)(C(F)(F)F)C2)ccc1C(=O)NC1C[S+]([O-])C1 (stereo not drawn) [ExNo A-23 of WO 2009/080250, reference compound] |  |  | 40 | 60 | 60 |  | 40%/7 dat |  |
